We go through one compound from patent US10905675B2, “Use of carbamate compound for prevention, alleviation or treatment of pruritus” (SK BIOPHARMACEUTICALS CO., LTD., priority 2016, dated 2021).

Assay [1] deals with acute pruritus induced by intradermal administration of serotonin. Nature of the assay: Acute pruritus animal model induced by intradermal administration of serotonin (scratching reactions). The following applies: rats; for inhibition of acute pruritus (number of scratching reactions) compared to the control group: 1 hour before intradermal serotonin, scratching counted for 30 minutes. The assay is classed as in vivo, rats (Sprague-Dawley). As for the experimental part: Mature male rats (Sprague-Dawley, 200 to 230 g) were used. The experimental animals were maintained at a light-and-darkness cycle of 12 hours (illuminated from 7 pm to 7 am), a temperature of 22 to 25° C., a relative humidity of 40 to 60%, and free access to water and food. The animals were randomly divided into three groups as follows: • Eight (8) rats as a control group, orally administered with 30% PEG400 as a vehicle at a dose of 5 ml/kg • Eight (8) rats, orally administered with the test compound at a dose of 10 mg/kg (5 ml/kg) • Eight (8) rats, orally administered with the test compound at a dose of 30 mg/kg (5 ml/kg)
On the day before the experiment, the skin fur on the right scapula of the rats was shaved to an area of about 2 cm square. On the day of the experiment, serotonin hydrochloride was dissolved in 0.9% physiological saline at a concentration of 4 mg/ml. The rats were placed in an acrylic box (20×30×20 cm) and adapted for 15 minutes in a quiet area, followed by intradermal administration of the dissolved serotonin in 50 μl per rat on the shaved area (Thomsen et al, Scratch induction in the rat by intradermal serotonin: a model for pruritus, Acta Derm Venereol, 2001).
Only when the rats scratched body parts within 5 cm square around the skin area where serotonin was administered, it was judged to be a valid scratching reaction.
The test compound was orally administered to the rats at a dose of 10 mg/kg (5 ml/kg) and 30 mg/kg (5 ml/kg) 1 hour before intradermal administration of serotonin.

Assay [2] deals with chronic pruritus induced by administration of capsaicin immediately after birth. Briefly: Chronic pruritus animal model induced by subcutaneous administration of capsaicin immediately after birth (scratching reactions). The assay is classed as in vivo, rats (Sprague-Dawley). As to conditions: rats, oral 30 mg/kg, 1 hour before measurement, third week after capsaicin, scratching counted for 1 hour. The method, then:
Baby rats within 48 hours after birth (Sprague-Dawley, 7 to 10 g) were obtained together with the mother rats, and were used. The experimental animals were maintained at a light-and-darkness cycle of 12 hours (illuminated from 7 pm to 7 am), a temperature of 22 to 25° C., a relative humidity of 40 to 60%, and free access to water and food. Until the 21st day after birth, the baby rats were bred together with the mother rats and allowed to drink the mother's milk. After the 21st day, the baby rats were kept off the milk and separated from the mother rats. The animals were randomly divided into two groups as follows: • Seven (7) rats as a control group, orally administered with 30% PEG400 as a vehicle at a dose of 5 ml/kg • Seven (7) rats, orally administered with the test compound at a dose of 30 mg/kg (5 ml/kg) […]
On the third week after capsaicin administration, the animals were placed in an acrylic box (20×30×20 cm), adapted for 30 minutes in a quiet area, and then observed for the number of scratching behaviors for 1 hour. One continuous scratching reaction was counted as one scratching reaction. […]

On to `NC(=O)O[C@@H](Cn1ncnn1)c1ccccc1Cl` [the test compound], for which the “dose dependence of the reduction of itching responses” value in assay [1] (oral 10 mg/kg and 30 mg/kg) is given as “dose-dependent”. In addition, the “inhibition of acute pruritus (number of scratching reactions) compared to the control group” value in assay [1] (oral 10 mg/kg) and in assay [1] (oral 30 mg/kg) was “statistically significantly inhibited” in each case. In addition, the “inhibition of chronic pruritus (number of scratching reactions) compared to the control group” value in assay [2] is on record as “statistically significantly inhibited”.
